Source: patent US4539208A, “Combination of thienamycin-type antibiotics with dipeptidase inhibitors” (Merck & Co., Inc., priority 1981, dated 1985)

Columns and labels:
[1] = biological target: T1, renal dipeptidase (E.C.3.4.13.11) (Sus scrofa, UniProt P22412); assay: Inhibition of GDP (glycyldehydrophenylalanine) hydrolysis by solubilized renal dipeptidase; type: biochemical, hog (pig) kidney; conditions: for inhibition at 100 µM: 10^-4 M inhibitor, GDP 0.05 mM, pH 7.1, 37° C.
T1 construct: solubilized preparation of dipeptidase isolated from hog kidneys; from tissue; host or cells: hog (pig) kidney
T1 sequence (P22412 17-409): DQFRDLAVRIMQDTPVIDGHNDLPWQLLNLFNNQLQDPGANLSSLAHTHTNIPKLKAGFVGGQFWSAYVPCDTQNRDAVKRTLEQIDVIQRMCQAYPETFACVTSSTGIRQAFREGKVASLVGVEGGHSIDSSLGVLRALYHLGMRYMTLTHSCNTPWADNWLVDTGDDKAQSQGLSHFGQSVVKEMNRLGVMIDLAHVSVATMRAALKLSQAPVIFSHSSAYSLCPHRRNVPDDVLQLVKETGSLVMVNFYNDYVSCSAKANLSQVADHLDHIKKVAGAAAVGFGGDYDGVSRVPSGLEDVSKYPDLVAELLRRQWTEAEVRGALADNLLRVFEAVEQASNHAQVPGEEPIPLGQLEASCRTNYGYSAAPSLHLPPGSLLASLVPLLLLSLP
Experimental: This measured the ability of compounds to inhibit hydrolysis of glycyldehydrophenylalanine (GDP) by a solubilized preparation of dipeptidase isolated from hog kidneys. The procedure is as follows: to a 1 ml. system containing 50 mM "MOPS" (3-(N-morpholino)propanesulfonic acid) buffer, pH 7.1, is added 5 μg of lyophilized enzyme, and the test compound at a final concentration of 0.1 mM. After a five minute incubation at 37° C., GDP is added to a final concentration of 0.05 mM. Incubation is continued for 10 minutes, at 37° C. and hydrolysis of GDP is measured by the change in optical density with time at 275 nm. Inhibition of the enzyme is gauged by comparison to a standard run containing no inhibitor and is expressed as the inhibitor binding constant, Ki.
A 1 ml. system of 50 mM "MOPS" buffer, pH 7.1, is used. To this is added 5 μg of the pig renal enzyme and an amount of the test compound to bring its final concentration to 0.1 mM. After a five minute incubation at 37° C., an amount of GDP is added to bring its final concentration to 0.05 mM. The system is again incubated for 10 minutes, at 37° C. Hydrolysis of GDP is measured by its change in optical density with time at 275 nm. Inhibition of the enzyme is gauged by comparison to a standard run containing no inhibitor and is presented as percent inhibition.

Staphalococcus aureus = assay: Systemic efficacy of thienamycin with co-administered inhibitor, Staphylococcus aureus infection in mouse; type: in vivo
in vivo = assay: in vivo; set-up: species or system dog (male beagle); conditions: dog, iv, 5 mg/kg
Experimental: A male beagle was used for a study of the effect of dipeptidase inhibitors on the urinary recovery of N-formimidoyl thienamycin. In a control study, the dog was given 5 mg/kg IV of the N-formimidoyl thienamycin without inhibitor. A second experiment used the same amount of N-formimidoylthienamycin, but also administered Z-2-isovaleramido-2-butenoic acid in 3 doses, each providing 20 mg/kg of the compound. The first dose was administered just after injection of the N-formimidoylthienamycin, the second at 40 min. and the third at 60 min. […]

[2] = Urinary recovery of thienamycin co-administered with dipeptidase inhibitor in the mouse; type: in vivo, mouse (Charles River CD, female); conditions: urine, iv, Table II, control, thienamycin 10 mg/kg alone
Experimental: In addition to this in vitro screen procedure, an in vivo screen was followed to measure the test compound's ability to inhibit metabolism as reflected by increase in urinary recovery of thienamycin from the mouse. The procedure involves co-administration of the test compound by the intravenous or subcutaneous route at a dose-rate of 10-100 mg/kg, with 10 mg/kg thienamycin. Thienamycin recovery in the urine over a 4 hour period is then compared with its recovery in a control group to which test compound was not co-administered.
Urinary recovery of thienamycin was measured in all cases with the use of a cylinder or disc diffusion assay, conducted in a manner described in U.S. Pat. No. 3,950,357. This bioassay, with Staphylococcus aureus ATCC 6538 as the test organism, has a useful response range from 0.04 μg/ml to 3.0 μg/ml.
An in vivo assay on the mouse was conducted as follows: 20 g Charles River CD, female mice were injected subcutaneously with the chosen dose of the chemical inhibitor. About two minutes later, the dose of thienamycin was given intravenously. A control of thienamycin above was also conducted. The level of thienamycin in the urine as a % of dose was measured using a bioassay technique. The two test compound numbers are those from Table I. Compound 7 is Z-2-isovaleramido-2-butenoicacid; compound 10 is Z-2-cyclopropylcarboxamido-2-butenoic acid. […]

Row | inhibition at 100 µM [1] | SMILES | also measured
1 | 96% | CC(C)/C=C(\NC(=O)C1CC1(C)C)C(=O)O (stereo not drawn) [Compound 41] | Ki [1]: 1600 nM
2 | 96% | C/C=C(\NC(=O)C1CC1CC)C(=O)O (stereo not drawn) [Compound 43] | –
3 | 95% | C/C=C(\NC(=O)C1CC1(C)C(C)C)C(=O)O (stereo not drawn) [Compound 44] | –
4 | 98% | CC/C=C(\NC(=O)C1CC1(C)C)C(=O)O (stereo not drawn) [Compound 45] | –
5 | 98% | CCC/C=C(\NC(=O)C1CC1(C)C)C(=O)O (stereo not drawn) [Compound 47] | –
6 | 97% | CC(C)C/C=C(\NC(=O)C1CC1(C)C)C(=O)O (stereo not drawn) [Compound 48] | –
7 | 100% | CCCC/C=C(\NC(=O)C1CC1(C)C)C(=O)O (stereo not drawn) [Compound 49] | –
8 | 100% | CCCCC/C=C(\NC(=O)C1CC1(C)C)C(=O)O (stereo not drawn) [Compound 50] | –
9 | 98% | CC1(C)CC1C(=O)N/C(=C\CCC(=O)O)C(=O)O (stereo not drawn) [Compound 51] | Ki [1]: 145 nM
10 | 99% | CSCC/C=C(\NC(=O)C1CC1(C)C)C(=O)O (stereo not drawn) [Compound 54] | –
11 | 96% | CC1(C)CC1C(=O)N/C(=C\CCS(C)(=O)=O)C(=O)O (stereo not drawn) [Compound 55] | –
12 | 98% | COCC/C=C(\NC(=O)C1CC1(C)C)C(=O)O (stereo not drawn) [Compound 61] | –
13 | 98% | CC(C)CC/C=C(\NC(=O)C1CC1(C)C)C(=O)O (stereo not drawn) [Compound 63] | –

Further lines, the compound ahead of its results:

Row | SMILES | inhibition at 100 µM [1] | also measured
14 | C/C=C(\NC(=O)CC(C)C)C(=O)O [Compound 7, Z-2-isovaleramido-2-butenoic acid] | 91% | enhancement of systemic antibacterial activity of thienamycin (Staphalococcus aureus; coadministered with thienamycin): enhanced approximately three-fold
15 | C/C=C(\NC(=O)CCCCCl)C(=O)O [Compound 36, Z-2-(5-chlorovaleramido)-2-butenoic acid] | 64% | Ki [1]: 20000 nM
16 | C/C=C(\NC(=O)CCCc1ccccc1)C(=O)O [Compound 37] | 72% | –
17 | C/C=C(\NC(=O)C1CC1C(C)(C)C)C(=O)O (stereo not drawn) [Compound 38] | 90% | –
18 | CCCCC/C=C(\NC(=O)CC(C)C)C(=O)O [Compound 39, Z-2-isovaleramido-2-octenoic acid] | 95% | –
19 | C/C=C(\NC(=O)C1CC1(C)CC)C(=O)O (stereo not drawn) [Compound 40] | 100% | –
20 | C/C=C(\NC(=O)C1CC1(CC)CC)C(=O)O (stereo not drawn) [Compound 42] | 98% | –
21 | CC1(C)CC1C(=O)N/C(=C\c1ccccc1)C(=O)O (stereo not drawn) [Compound 46] | 100% | –
22 | CC1(C)CC1C(=O)N/C(=C\CC1CCCCC1)C(=O)O (stereo not drawn) [Compound 52] | 100% | –
23 | CC1(C)CC1C(=O)N/C(=C\CCc1ccccc1)C(=O)O (stereo not drawn) [Compound 53] | 96% | –
24 | CCCCCC/C=C(\NC(=O)C1CC1(C)C)C(=O)O (stereo not drawn) [Compound 56] | 98% | Ki [1]: 149 nM
25 | CCCCCCC/C=C(\NC(=O)C1CC1(C)C)C(=O)O (stereo not drawn) [Compound 57] | 99% | Ki [1]: 92 nM
26 | CCCCCCCCCC/C=C(\NC(=O)C1CC1(C)C)C(=O)O (stereo not drawn) [Compound 58] | 96% | –
27 | CC1(C)CC1C(=O)N/C(=C\Cc1ccccc1)C(=O)O (stereo not drawn) [Compound 59] | 98% | Ki [1]: 440 nM
28 | CC1(C)CC1C(=O)N/C(=C\CC1CCCO1)C(=O)O (stereo not drawn) [Compound 65] | – | Ki [1]: 390 nM
29 | C[C@@H](O)[C@H]1C(=O)N2C(C(=O)O)=C(SCCN=CN)C[C@H]12 [N-formimidoyl thienamycin, N-Formimidoyl thienamycin] | – | dose excreted at 3 h (in vivo): 7.8%
30 | C[C@@H](O)[C@H]1C(=O)N2C(C(=O)O)=C(SCCN)C[C@H]12 [Thienamycin] | – | dose excreted at 4 h [2]: 25 to 30%; ED50 (Staphalococcus aureus; THM +100 mg/kg inhibitor (Z-2-isovaleramido-2-butenoic acid)): 0.06 mg/kg; ED50 (Staphalococcus aureus; THM alone): 0.2 mg/kg
